From patent EP4603105A1, “PHARMACEUTICAL COMPOSITION CONTAINING CYCLIC COMPOUND HAVING SELECTIVE KRAS INHIBITORY EFFECT AGAINST HRAS AND NRAS” (CHUGAI SEIYAKU KABUSHIKI KAISHA, priority 2022, dated 2024)
Read-outs that look alike come from different tables or passages of the source.

Legend:
HRAS wild-type protein = HRAS wild-type protein (Homo sapiens, UniProt P01112); test: Binding to HRAS by surface plasmon resonance (SPR), KD and KD ratio to KRAS
Method in brief: (§1)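 Compound binding is evaluated by SPR single-cycle kinetics, with concentrations added intermittently from low to high for 75 s each. Target surfaces carry GDP-loaded biotinylated Avi-RAS at about 100–300 RU, regenerated after each cycle; temperature 30°C. A 1:1 binding model gives KD.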

[1] = tested on: human lung cancer strain NCI-H441; test: NCI-H441 cell proliferation inhibitory activity (CellTiter-Glo, 4 days); type: cell-based; details: read-out: NCl-H441 IC50
Method in brief: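 Proliferation was scored by […] measured after the reagent was added to cultures kept at 37°C in 5% carbon dioxide.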

[2] = molecular target: GDP-bound NRAS wild-type protein (Homo sapiens, UniProt P01111); test: Binding to NRAS by surface plasmon resonance (SPR), KD and KD ratio to KRAS
Method in brief: as §1

[3] = molecular target: GDP-bound KRAS wild-type protein (Homo sapiens, UniProt P01116); test: Binding to KRAS by surface plasmon resonance (SPR), dissociation constant KD
Method in brief: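 Recombinant RAS proteins bearing a biotinylated Avi tag and loaded with GDP served as the captured ligand, recaptured fresh every cycle. Binding responses were referenced to an uncoated surface and a buffer-only blank cycle. Dissociation constants were obtained by 1:1 model fitting at 30°C.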

[4] = ratio of KD for HRAS wild-type protein to KD for KRAS
[5] = ratio of KD for GDP-bound NRAS wild-type protein to KD for KRAS
[6] = ratio of KD with respect to HRAS wild-type protein to KD with respect to KRAS
[7] = 50% proliferation inhibitory concentration, four days
[8] = ratio of KD with respect to GDP-bound NRAS wild-type protein to KD with respect to KRAS
[9] = Single Cycle Kinetics, 1:1 binding model

GDP-bound NRAS wild-type protein, sequence (P01111 whole entry): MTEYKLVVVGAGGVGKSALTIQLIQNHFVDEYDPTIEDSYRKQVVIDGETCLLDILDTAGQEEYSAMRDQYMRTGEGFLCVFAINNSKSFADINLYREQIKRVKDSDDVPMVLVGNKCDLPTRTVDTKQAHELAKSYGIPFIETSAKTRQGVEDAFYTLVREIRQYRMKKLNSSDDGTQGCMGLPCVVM
GDP-bound KRAS wild-type protein, sequence (P01116 1-188 isoform P01116-2): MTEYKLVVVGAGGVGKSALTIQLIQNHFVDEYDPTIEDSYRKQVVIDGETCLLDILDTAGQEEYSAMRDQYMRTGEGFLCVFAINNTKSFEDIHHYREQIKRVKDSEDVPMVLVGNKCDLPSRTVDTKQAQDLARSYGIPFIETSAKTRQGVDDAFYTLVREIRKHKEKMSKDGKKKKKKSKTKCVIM
HRAS wild-type protein, sequence (P01112 whole entry): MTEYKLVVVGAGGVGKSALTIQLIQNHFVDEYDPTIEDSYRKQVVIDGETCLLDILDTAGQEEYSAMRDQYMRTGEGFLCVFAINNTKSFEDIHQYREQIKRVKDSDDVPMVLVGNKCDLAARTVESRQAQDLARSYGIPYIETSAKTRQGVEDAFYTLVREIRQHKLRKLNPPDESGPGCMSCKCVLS

Row | IC50 ([1]; NCI-H441 cells, 4 days) [nM] | Kd ([3]; Single Cycle Kinetics) [nM] | IC50 [1, 7] [nM] | Kd [3, 9] [nM] | Kd ([3]; 1:1 binding model) [nM] | SMILES | HRAS /KRAS (HRAS wild-type protein; [4]) | NRAS /KRAS [2, 5] | HRAS /KRAS (HRAS wild-type protein; [6]) | NRAS /KRAS [2, 8]
1 |  |  | 498 | 4.8 |  | CC[C@H](C)[C@@H]1NC(=O)[C@H](CC2CC2)N(C)C(=O)C[C@@H](C)N(C)C(=O)[C@H](C2CCCC2)N(C)C(=O)C2(CCC2)NC(=O)[C@H](CCC(F)F)N(C)C(=O)[C@H](CCc2cc(F)c(C(F)(F)F)c(F)c2)NC(=O)CN(C)C(=O)[C@H](Cc2ccc(C(F)(F)F)cc2)N2CC/C=C\C[C@@H](C2=O)N(C)C(=O)CN(C)C1=O [PP1404] |  |  | A (a compound having 10 or more and less than 20 is denoted as A) | A (a compound having 10 or more and less than 20 is denoted as A)
2 | 16.8 | 1.5 |  |  |  | C#CC[C@H]1C(=O)N[C@@H]([C@@H](C)CC)C(=O)N(C2CC2)CC(=O)N(C)[C@H]2C/C=C\CCN(C2=O)[C@@H](Cc2ccc(C(F)(F)F)cc2)C(=O)N(C)CC(=O)N[C@@H](CCc2ccc(C(F)(F)F)c(OC)c2)C(=O)N2C[C@H](OCC)C[C@H]2C(=O)OC2(CCC2)C(=O)N(C)[C@@H](C2CCCC2)C(=O)N(C)[C@H](C(=O)N(C)C)CC(=O)N1C [PP3372] | B (a compound having 3 or more and less than 10 is denoted as B) | A (a compound having 10 or more and less than 20 is denoted as A) |  | 
3 |  |  | 50.8 | 0.04 |  | CCO[C@@H]1C[C@H]2C(=O)NC3(CCC3)C(=O)N(C)[C@@H](C3CCCC3)C(=O)N(C)[C@H](C(=O)N(C)C)CC(=O)N(C)[C@@H](Cc3cccnc3)C(=O)N[C@@H]([C@@H](C)CC)C(=O)N(C)CC(=O)N(C)[C@H]3CCCCCN(C3=O)[C@@H](Cc3ccc(F)cc3)C(=O)N(C)CC(=O)N[C@@H](CCc3cc(F)c(C(F)(F)F)c(F)c3)C(=O)N2C1 [PP1196] |  |  | B (a compound having 3 or more and less than 10 is denoted as B) | B (a compound having 3 or more and less than 10 is denoted as B)
4 | 5.7 | 0.035 |  |  |  | CCC[C@H]1C(=O)N[C@@H]([C@@H](C)CC)C(=O)N(C)CC(=O)N(C)[C@H]2C/C=C\CCN(C2=O)[C@@H](Cc2ccc(C(F)(F)F)cc2)C(=O)N(C)CC(=O)N[C@@H](CCc2cc(F)c(C(F)(F)F)c(F)c2)C(=O)N2CC3(CC3)C[C@H]2C(=O)NC2(CCC2)C(=O)N(C)[C@@H](CC(C)(C)C)C(=O)N(C)[C@H](C(=O)N(C)C)CC(=O)N1C [PP3406] | B (a compound having 3 or more and less than 10 is denoted as B) | A (a compound having 10 or more and less than 20 is denoted as A) |  | 
5 | 12.5 | 0.21 |  |  |  | C#CC[C@H]1C(=O)N[C@@H]([C@@H](C)CC)C(=O)N(C)CC(=O)N(C)[C@H]2C/C=C\CCN(C2=O)[C@@H](Cc2ccc(C(F)(F)F)cc2)C(=O)N(C)CC(=O)N[C@@H](CCc2ccc(C(F)(F)F)c(OC)c2)C(=O)N2C[C@H](OCC)C[C@H]2C(=O)OC2(CCC2)C(=O)N(C)[C@@H](C2CCCC2)C(=O)N(C)[C@H](C(=O)N(C)C)CC(=O)N1C [PP3373] | A (a compound having 10 or more and less than 20 is denoted as A) | A (a compound having 10 or more and less than 20 is denoted as A) |  | 
6 | 12.2 | 0.31 |  |  |  | CCc1cc(CC[C@@H]2NC(=O)CN(C)C(=O)[C@H](Cc3ccc(C(F)F)cc3)N3CC/C=C\C[C@@H](C3=O)N(C)C(=O)CN(C)C(=O)[C@H]([C@@H](C)OC)NC(=O)[C@H](CC)N(C)C(=O)C[C@@H](C(=O)N(C)C)N(C)C(=O)[C@H](C(CC)CC)N(C)C(=O)C3(CCC3)N(C)C(=O)[C@@H]3C[C@@H](OC(C)C)CN3C2=O)ccc1C(F)(F)F [PP3500] | A (a compound having 10 or more and less than 20 is denoted as A) | A (a compound having 10 or more and less than 20 is denoted as A) |  | 

Continued, compound first:

Row | SMILES | IC50 ([1]; NCI-H441 cells, 4 days) [nM] | Kd ([3]; Single Cycle Kinetics) [nM] | IC50 [1, 7] [nM] | Kd [3, 9] [nM] | Kd ([3]; 1:1 binding model) [nM] | HRAS /KRAS (HRAS wild-type protein; [4]) | NRAS /KRAS [2, 5] | HRAS /KRAS (HRAS wild-type protein; [6]) | NRAS /KRAS [2, 8]
7 | CCO[C@@H]1C[C@H]2C(=O)NC3(CC(C)(C)C3)C(=O)N(C)[C@@H](C3CCCC3)C(=O)N(C)[C@H](C(=O)N(C)CC)CC(=O)N(C)[C@@H]([C@@H](C)OC)C(=O)N[C@@H]([C@@H](C)CC)C(=O)N3CCC[C@H]3C(=O)N(C)[C@H]3C/C=C\CCN(C3=O)[C@@H](Cc3ccc(C(F)(F)F)cc3)C(=O)N(C)CC(=O)N[C@@H](CCc3ccc(C(F)(F)F)c(OC)c3)C(=O)N2C1 [PP3170] | 42.5 | 0.84 |  |  |  | A (a compound having 10 or more and less than 20 is denoted as A) | A (a compound having 10 or more and less than 20 is denoted as A) |  | 
8 | CCC[C@H]1C(=O)N[C@@H]([C@@H](C)CC)C(=O)N2CCC[C@H]2C(=O)N(C)[C@H]2C/C=C\CCN(C2=O)[C@@H](Cc2ccc(C(F)(F)F)cc2)C(=O)N(C)CC(=O)N[C@@H](CCc2ccc(C(F)(F)F)c(OC)c2)C(=O)N2C[C@@H](C)C[C@H]2C(=O)N(C)C2(CCC2)C(=O)N(C)[C@@H](C2CCCC2)C(=O)N(C)[C@H](C(=O)N(C)C)CC(=O)N1C [PP2362] | 4.8 |  |  |  | 0.076 | A (a compound having 10 or more and less than 20 is denoted as A) | A (a compound having 10 or more and less than 20 is denoted as A) |  | 
9 | CCO[C@@H]1C[C@H]2C(=O)NC3(CCC3)C(=O)N(C)[C@@H](C3CCCC3)C(=O)N(C)[C@H](C(=O)N3CCOCC3)CC(=O)N(C)[C@@H](Cc3ccsc3)C(=O)N[C@@H]([C@@H](C)CC)C(=O)N(C)CC(=O)N(C)[C@H]3CCCCCN(C3=O)[C@@H](Cc3ccc(C(F)(F)F)cc3)C(=O)N(C)CC(=O)N[C@@H](CCc3cc(F)c(C(F)(F)F)c(F)c3)C(=O)N2C1 [PP1164] |  |  | 95.9 | 0.52 |  |  |  | B (a compound having 3 or more and less than 10 is denoted as B) | B (a compound having 3 or more and less than 10 is denoted as B)
10 | CCC[C@H]1C(=O)N[C@@H]([C@@H](C)CC)C(=O)N2CCC[C@H]2C(=O)N(C)[C@H]2C/C=C\CCN(C2=O)[C@@H](Cc2ccc(C(F)F)cc2)C(=O)N(C)CC(=O)N[C@@H](CCc2ccc(Cl)c(Cl)c2)C(=O)N2C[C@H](OCC)C[C@H]2C(=O)NC2(CC(C)(C)C2)C(=O)N(C)[C@@H](C(CC)CC)C(=O)N(C)[C@H](C(=O)N(C)C)CC(=O)N1C [PP2637] | 61.4 |  |  |  | 1 | A (a compound having 10 or more and less than 20 is denoted as A) | AA (a compound having 20 or more is denoted as AA) |  | 
11 | CCO[C@@H]1C[C@H]2C(=O)NC3(CCC3)C(=O)N(C)[C@@H](C(CC)CC)C(=O)N(C)[C@H](C(=O)N(C)C)CC(=O)N(C)[C@@H](C)C(=O)N[C@@H]([C@@H](C)CC)C(=O)N(C)CC(=O)N(C)[C@H]3C/C=C\CCN(C3=O)[C@@H](Cc3ccc(C(F)(F)F)cc3)C(=O)N(C)CC(=O)N[C@@H](CCc3cc(F)c(C(F)(F)F)c(F)c3)C(=O)N2C1 [PP1199] |  |  | 39.1 | 0.17 |  |  |  | A (a compound having 10 or more and less than 20 is denoted as A) | A (a compound having 10 or more and less than 20 is denoted as A)
12 | CCO[C@@H]1C[C@H]2C(=O)NC3(CCCC3)C(=O)N(C)[C@@H](C3CCCC3)C(=O)N(C)[C@H](C(=O)N(C)C)CC(=O)N(C)[C@@H]([C@@H](C)OC)C(=O)N[C@@H]([C@@H](C)CC)C(=O)N(C3CC3)CC(=O)N(C)[C@H]3C/C=C\CCN(C3=O)[C@@H](Cc3ccc(C(F)(F)F)cc3)C(=O)N(C)CC(=O)N[C@@H](CCc3cc(F)c(C(F)(F)F)c(F)c3)C(=O)N2C1 [PP3476] | 15.2 | 0.37 |  |  |  | A (a compound having 10 or more and less than 20 is denoted as A) | A (a compound having 10 or more and less than 20 is denoted as A) |  | 
13 | CCCOC[C@H]1C(=O)N[C@@H]([C@@H](C)CC)C(=O)N2CCC[C@H]2C(=O)N(C)[C@H]2C/C=C\CCN(C2=O)[C@@H](Cc2ccc(C)cc2)C(=O)N(C)CC(=O)N[C@@H](CCc2cc(F)c(C(F)(F)F)c(F)c2)C(=O)N2C[C@H](C)C[C@H]2C(=O)NC2(CC(C)(C)C2)C(=O)N(C)[C@@H](C2CCCC2)C(=O)N(C)[C@H](C(=O)N(C)CC)CC(=O)N1C [PP2430] | 33.2 |  |  |  | 1.4 | A (a compound having 10 or more and less than 20 is denoted as A) | AA (a compound having 20 or more is denoted as AA) |  | 
14 | CCO[C@@H]1C[C@H]2C(=O)NC3(CCC3)C(=O)N(C)[C@@H](C3CCCC3)C(=O)N(C)[C@H](C(=O)N3CCOCC3)CC(=O)N(C)[C@@H](CC)C(=O)N[C@@H]([C@@H](C)CC)C(=O)N3CC[C@H]3C(=O)N(C)[C@H]3C[C@@H](C)[C@@H](C)CN(C3=O)[C@@H](Cc3ccc(C(F)(F)F)cc3)C(=O)N(C)CC(=O)N[C@@H](CCc3ccc(C(F)(F)F)c(Cl)c3)C(=O)N2C1 [PP1357] |  |  | 5.4 | 0.13 |  |  |  | B (a compound having 3 or more and less than 10 is denoted as B) | A (a compound having 10 or more and less than 20 is denoted as A)
15 | CCC[C@H]1C(=O)N[C@@H]([C@@H](C)CC)C(=O)N(C2CC2)CC(=O)N(C)[C@H]2C/C(F)=C\CCN(C2=O)[C@@H](Cc2ccc(C)cc2)C(=O)N(C)CC(=O)N[C@@H](CCc2cc(F)c(C(F)(F)F)c(F)c2)C(=O)N2C[C@H](OCC)C[C@H]2C(=O)N(C)C2(CCC2)C(=O)N(C)[C@@H](C2CCCC2)C(=O)N(C)[C@H](C(=O)N(C)C)CC(=O)N1C [PP3527] | 7.2 | 0.38 |  |  |  | B (a compound having 3 or more and less than 10 is denoted as B) | B (a compound having 3 or more and less than 10 is denoted as B) |  | 
